The values that follow are results of earlier work, collected in patent US8378072B2, “Methods for designing and synthesizing directed sequence polymer compositions via the directed expansion of epitope permeability” (Declion Pharmaceuticals, Inc., priority 2006, dated 2013).

The conditions of series [1]: compared with COP-1.
For series [2] the following is noted: YFAK input ratio of 1:1:1:1 compared to input ratio of 1:1:10:6; Rasmussen et al.
The conditions of series [3]: Raz et al., Lancet 2001.
The conditions of series [4]: limited human trials; Kim et al. Clinical Immunology 2002.

Take “YFAK: random sequence polymer consisting of the amino acids Y, F, A, and K”: the “efficacy in EAE” value in series [1] is “better efficacy”. In addition, in series [2], the “eliciting a recall response” value is “not effective”.
As for VLGGGVALLRVIPALDSLTPANED [p277], the “activity in the context of Type I diabetes” value in series [3] is reported as “apparent activity”.
With “AKPVVHLFANIVTPRTP [altered peptide ligand (APL) made from MBP83-99, placed into limited human trials]”, the “clinical efficacy by evaluation using MRI” value in series [4] is on record as “clinically ineffective”.
